# What was measured:
# [1] = Reconstitution of Orbactiv 400 mg vial with aqueous HPCD: time to dissolve, pH and visual observation on storage; type: physicochemical; conditions: for visible precipitation: over 24 hours; for time to go into solution (clear, colorless solution): 57.14 mg/mL; for pH: oritavancin 50 mg/mL
# Protocol: Reconstituting Orbactiv 400 mg (Oritavancin) with 50% HPCD. 5.915 g of HPCD was dissolved in 11.83 mL of water to make a 50 wt % aqueous solution. 8 mL of the 50% HPCD solution was added to a 400 mg vial of Orbactiv for a target oritavancin concentration of 50 mg/mL. […] The pH was measured and the solution was stored at room temperature, protected from light, and observed over 24 hours for signs of precipitation (Table 1).
# Reconstituting Orbactiv 400 mg (Oritavancin) in 20% w/v HPCD aqueous solution. 3.095 g HPCD was dissolved in 15.474 mL water to make a 20% w/v solution (pH=6.05). 8 mL of the 20% w/v HPCD solution was added to a 400 mg vial of Orbactiv for a target oritavancin concentration of 50 mg/mL. […] The pH was measured and the solution was stored at room temperature, protected from light, and observed over 24 hours for signs of precipitation (Table 3).
# Reconstituting Orbactiv 400 mg (Oritavancin) in 50% w/v HPCD aqueous solution, adjusting pH then diluting in saline. 6.269 g of HPCD was dissolved in 12.538 mL of water to make a 50% w/v solution (pH=7.23). Seven (7) mL of the 50% w/v solution was added to a 400 mg vial of Orbactiv for a target oritavancin concentration of 57.14 mg/mL. […] A 2 mL aliquot of 57.14 mg/mL was removed from the vial and placed in a small glass vial. The pH was adjusted to 6.5 using 1N NaOH. NaOH was added to the oritavancin solution in 5 μL increments and vortexed. Visual observations and pH were recorded (Table 6).
# (§1) Reconstituting Orbactiv 400 mg (Oritavancin) in 50% w/v aqueous HPCD, adjusting pH then diluting in saline. 6.112 g of HPCD was dissolved in 12.224 mL of water to make a 50% w/v solution (pH=6.74). Seven (7) mL of the 50% w/v HPCD solution was added to a 400 mg vial of Orbactiv for a target oritavancin concentration of 57.14 mg/mL. […] A 3 mL aliquot of 57.14 mg/mL was removed from the vial and placed in a small glass vial. The pH was adjusted to 7 using 1N NaOH. NaOH was added to the oritavancin solution in 5 μL increments and vortexed. Visual observations and pH were recorded (Table 8).
# as §1, with “20%” for “50%”, “3.555” for “6.112”, “17.775” for “12.224”, “(pH=6.88).” for “(pH=6.74).”, “recorded.” for “recorded”, “10).” for “8).”
# Reconstituting Orbactiv 400 mg (Oritavancin) in 20% w/v aqueous HPCD then diluting in Hank's Balanced Salt Solution (HBSS). 2.641 g of HPCD was dissolved in 13.205 mL of water to make a 20% w/v solution (pH=6.70). Eight (8) mL of the 20% w/v solution was added to a 400 mg vial of Orbactiv for a target oritavancin concentration of 50 mg/mL. […] A 1.5 mL aliquot of 50 mg/mL was removed from the vial and placed in a small glass vial and pH measured. Diluted 2 mL of 50 mg/mL oritavancin solution in 8 mL of HBSS. Visual observations and pH were recorded. (Table 12).
# [2] = radiolabeled PK study ADME-rpt-7-053r95; cited from earlier work
smiles,measurement,setting,value
CN[C@H](CC(C)C)C(=O)N[C@H]1C(=O)N[C@@H](CC(N)=O)C(=O)N[C@H]2C(=O)N[C@H]3C(=O)N[C@H](C(=O)N[C@H](C(=O)O)c4cc(O)cc(O)c4-c4cc3ccc4O)[C@H](O[C@H]3C[C@](C)(N)[C@@H](O)[C@H](C)O3)c3ccc(c(Cl)c3)Oc3cc2cc(c3O[C@@H]2O[C@H](CO)[C@@H](O)[C@H](O)[C@H]2O[C@H]2C[C@](C)(NCc3ccc(-c4ccc(Cl)cc4)cc3)[C@@H](O)[C@H](C)O2)Oc2ccc(cc2Cl)[C@H]1O [Oritavancin],visible precipitation,[1]; 50 mg/mL in 20% w/v HPCD solution,did not show any sign of visible precipitation
same,visible precipitation,[1]; 50 mg/mL in 50% HPCD aqueous solution,did not show any sign of visible precipitation
same,"time to go into solution (clear, colorless solution)",[1]; 400 mg vial + 7 mL 20% w/v HPCD solution,≤ 5 min
same,"time to go into solution (clear, colorless solution)","[1]; 400 mg vial + 7 mL 20% w/v HPCD solution, listed as Orbactiv",5 min
same,"time to go into solution (clear, colorless solution)",[1]; 400 mg vial + 7 mL 50% w/v HPCD solution,≤ 5 min
same,"time to go into solution (clear, colorless solution)","[1]; 400 mg vial + 7 mL 50% w/v HPCD solution, listed as Orbactiv",5 min
same,pH,"[1]; reconstituted with 20% w/v aqueous HPCD, RT, 0 hr",3.85
same,pH,"[1]; reconstituted with 20% w/v aqueous HPCD, RT, 24 hr",4.17
same,pH,"[1]; reconstituted with 50% w/v HPCD in water, 0 hr",3.94
same,plasma AUC relative to whole blood AUC,[2],1.59 ×
same,whole blood AUC as percentage of plasma AUC,[2],62.8%
